Measurements taken from US11446282B2, “Methods of treating mixed dyslipidemia and hypertriglycertdemia” (Kowa Company, Ltd., priority 2017, dated 2022).

Experiments:
[1] = system: apolipoprotein (Apo) A1 transgenic mice; assay: TG decrease and HDL-C increase in Apo A1 transgenic mice; assay type: in vivo; settings: versus fenofibrate
European patients = assay: Study K-877-201, Phase 2 dose-finding study conducted in Europe; assay type: in vivo, human
Description: (§1) In previous clinical trials, pemafibrate has been administered at doses ranging from 0.1 mg to 1.6 mg per day in healthy adults. Doses up to 0.4 mg per day have been administered in patients with dyslipidemia. […] Increases in LDL-C, both by beta quantification and calculation with the Friedewald equation, were also observed. Based on analysis of efficacy variables, pemafibrate appeared to have a lowering effect on Apo C3 that led to the conversion of VLDL particles to LDL particles, increasing the fraction of larger LDL particles, and reducing TG levels. Similarly, the reduction of Apo C3 led to increased removal of remnant-like particles and lowering of Apo B48. […] The observed increases in Apo A1 and HDL-C resulted from both increased production of Apo A1 in the liver and increased turnover of TG-rich lipoproteins, both of which were associated with a decreased CHD risk.

[2] = system: patients with dyslipidemia; assay: Previous clinical trials of pemafibrate (healthy adults, patients with dyslipidemia); assay type: in vivo, human
Description: as §1
Because the urinary excretion of pemafibrate is low, as shown by nonclinical and clinical studies, it is expected that pemafibrate can be used safely even in patients with renal impairment. In addition, because the drug has minimal inhibitory effects on major drug metabolizing enzymes in the liver, it is unlikely to cause drug-drug interactions; however, drugs which are strong organic anion-transporting polypeptide (OATP) inhibitors (e.g., cyclosporine and rifampin) do interact with pemafibrate.

[3] = system: organic anion-transporting polypeptide (OATP); assay: Drug-drug interaction with strong OATP inhibitors
[4] = Study K-877-12, pharmacokinetics in patients with renal impairment; assay type: in vivo, human; settings: Japanese patients with renal impairment, even severe
[5] = system: dyslipidemic patients with renal impairment; assay: Example 3 phase III 52-week trial: adverse events and adverse drug reactions; assay type: in vivo, human
Description: This was a multicenter, single-arm, open-label, phase III trial. The inclusion criteria were as follows: (1) patients with dyslipidemia aged >20 years at the time of informed consent; (2) men and postmenopausal women; (3) fasting serum TG≥1.70 mmol/L (150 mg/dL) at two consecutive measurements during screening; and (4) patients who followed dietary and physical exercise guidance for >12 weeks before enrollment.
During the screening period (8 weeks prior to treatment initiation), tests were performed twice to determine patient eligibility. Thereafter, eligible patients orally received pemafibrate 0.2 mg/day (twice daily) for 52 weeks. From week 12 of the treatment period onwards, the investigators were instructed that the dose could be increased from 0.2 mg/day to 0.4 mg/day (twice daily) if there was an inadequate response to the initial dose based on fasting serum TG levels ≥1.70 mmol/L (150 mg/dL). Fasting blood and urine samples were collected at each visit. Blood and urine sample in patients with hemodialysis were collected just before dialysis. LDL-C levels were measured using the direct method. Lipoprotein fractions were measured by HPLC at baseline and weeks 12 and 40.
The primary efficacy endpoint was the percent change in fasting serum TG from baseline to the last evaluation point. The primary safety endpoints were the incidence of an AE or ADR occurring after drug administration during the study. Secondary efficacy endpoints included percent changes in lipid variables and changes in inflammation variables at week 52 [using the last-observation-carried-forward (LOCF)]. Secondary safety endpoints included changes in the levels of aspartate aminotransferase (AST), ALT, -GT, ALP, serum creatinine, eGFR, and CK at week 52. […]
The numbers of patients with AEs and ADRs and the incidences of AEs and ADRs were calculated in the analysis of primary safety endpoints. […] The secondary safety endpoints were analyzed with Wilcoxon signed-rank tests. […] Where indicated, the data are expressed as means±standard deviation (SD).

[6] = baseline to Week 12, last observation carried forward

SMILES: CC[C@@H](Oc1cccc(CN(CCCOc2ccc(OC)cc2)c2nc3ccccc3o2)c1)C(=O)O [Pemafibrate, (2R)-2-[3-({1,3-benzoxazol-2-yl[3-(4-methoxyphenoxy)propyl]amino}methyl)phenoxy]butanoic acid]
- potency in decreasing TG and increasing HDL-C [1]: more potent than fenofibrate
- placebo-adjusted TG reduction (European patients; 0.2 mg twice daily): 54.4%
- Apo A1 change (European patients; [6]): increases
- Apo A2 change (European patients; [6]): increases
- Apo B48 change (European patients; [6]): decreases
- Apo C2 change (European patients; [6]): decreases
- Apo C3 change (European patients; [6]): decreases
- FGF21 change (European patients; [6]): increases
- HDL-C change (European patients; [6]): increases
- VLDL-C change (European patients; [6]): decreases
- LDL-C change (European patients; by beta quantification and Friedewald equation): Increases
- non-HDL-C change (European patients; in vivo): decrease
- total Apo B levels change (European patients; in vivo): no changes
- efficacy in TG reduction and HDL-C elevation (European patients; twice daily compared to once daily): Greater efficacy
- TG change ([2]; Japanese and European patients): dose-dependent decreases
- safety profile ([2]; total daily doses 0.1 mg to 0.4 mg, daily or divided twice daily): acceptable safety profile
- interaction with strong OATP inhibitors (e.g., cyclosporine and rifampin) [3]: interact
- differences in pharmacokinetics (PK) with renal impairment [4]: no meaningful differences
- incidence of adverse drug reactions ([5]; 0.2 (0.4) mg/day, 52 weeks): 31.7%
- incidence of adverse events ([5]; 0.2 (0.4) mg/day, 52 weeks): 82.0%
- association of adverse event and adverse drug reaction incidences with baseline eGFR ([5]; in vivo): not associated
